Counter-ions that a name gives are not always drawn. Like-named read-outs stand apart in the source and are kept apart here.
Legend:
L1210 leukemia [1] = assay: animal or person; assay type: in vivo, mice (BDFl male); details: Mus musculus, L1210, ip, 10 mg/Kg/day, read-out: % T/C (mean survival time treated/mean survival time control ×100)
Method: The following study of the antitumor activity of the compounds of formula (I) against L1210 leukemia illustrates this aspect of the present invention.
Groups of 6 mice (BDFl male) were inoculated i.p. with 10^5 L1210 leukemia cells on day 0. Test compounds or vehicle (Control group) were administered at the indicated doses starting on day 1 and continuing through day 5 or 9. Relative survival time was determined and expressed as % T/C (mean survival time treated/mean survival time control ×100). Presence or absence of delayed toxicity was determined by an examination o the animal's external appearance and behavior during the study. For example, an emaciated condition is a key indication of delayed toxicity in these studies.

L1210 leukemia [2] = details: 6.25 mg/Kg × 4 doses per day, days 3 thru 7, n=6, Edwards et al., cited from earlier work
L1210 leukemia [3] = assay: Curative Effect Against Advanced L1210 Leukemia (survival, cures); assay type: in vivo, mice (BDFl male); details: for Cured (mice surviving beyond day 45) / Survival in days (Mean ± S.E.): n=5
Method: In an additional study, groups of 5 mice (BDFl male) were inoculated i.p. with 10^5 L1210 leukemia cells on day 0. N,N'-bis[3-(ethylamino)propyl]-1,7-diaminoheptane or vehicle (Control group) were administered at the indicated doses and on the indicated days. […] In a similar study, N,N'-bis[3-(amino)propyl]-1,8-diaminooctane, administered at a dose of […] on days 3 through 7, provided a %T/C of 350 but no cures in 6 animals [Edwards et al., J. Med. Chem. 33, 1369 (1990), See Table II infra].

[4] = test system: MCA-38 colon adenocarcinoma cells; assay: Experimental Murine Liver Metastasis (MCA-38 colon adenocarcinoma cells injected intrasplenically); assay type: in vivo, C57BL/6 mice; details: i.p., day 14; for Liver Metastasis No. foci ± S.E.: n = 6, p < 0.001, control 220.6 ± 22.2
Method: C57BL/6 mice were injected intrasplenically on day 0 with MCA-38 colon adenocarcinoma cells (1×10^5) so as to induce hepatic metastasis. Liver metastatic foci were determined as described by Bowlin et al. [Cancer Res. 50, 5460 (1990)]. Briefly, injected animals were randomly allocated to one of three treatment groups, 6 animals per group, and test compound or vehicle (Control) was administered i.p. at the doses and times indicated in Table 3. Liver metastatic foci were determined on day 14.

[5] = test system: 3LL (Lewis lung) carcinoma cells; assay: Experimental Murine Lung Metastasis (3LL Lewis lung carcinoma cells injected into footpad); assay type: in vivo, C57BL/6 mice
Method: C57BL/6 mice were injected into the footpad on day 0 with 3LL (Lewis lung) carcinoma cells (1×10^6) so as to induce lung metastasis. Lung metastatic foci were determined as described by Sunkara et al. [J.Biological Response Modifiers 8, 170 (1989)]. Briefly, injected animals were randomly allocated to one of two treatment groups, 6 animals per group, and test compound or vehicle (Control) was administered i.p. at the doses and times indicated in Table 4. Lung metastatic foci were determined on day 18.

[6] = 5 mg/Kg × 4 doses per day, days 3, 4, 5
[7] = 5 mg/Kg × 4 doses per day, days 3, 4
[8] = 10 mg/Kg × 4 doses per day, days 3, 4

NCCCNCCCCCCCCNCCCN [Compound 26547, N,N'-bis[3-(amino)propyl]-1,8-diaminooctane]
response vs control in vivo at 10 mg/kg (L1210 leukemia [1]; days 1-9): 171%
% T/C (L1210 leukemia [2]; J. Med. Chem. 33, 1369 (1990)): 350%
Cured (L1210 leukemia [2]; J. Med. Chem. 33, 1369 (1990)): 0/6
Cured (L1210 leukemia [2]; J. Med. Chem. 33, 1369 (1990), listed as N,N'-bis[3-(amino)propyl]-1,8-diaminooctane): no cures
Delayed toxicity (L1210 leukemia [2]): exhibited delayed toxicity

CNCCCNCCCCCCCCNCCCNC [Compound 27259, N,N'-Bis(3-(methylamino)propyl)-1,8-octanediamine tetrahydrochloride]
response vs control in vivo at 10 mg/kg (L1210 leukemia [1]; days 1-9): 172%

CCNCCCNCCCCCCCCNCCCNCC [Compound 27393, N,N'-Bis(3-(ethylamino)propyl)-1,8-octanediamine tetrahydrochloride]
response vs control in vivo at 10 mg/kg (L1210 leukemia [1]; days 1-9): 112%

CNCCCNCCCCCCCNCCCNC [Compound 28249, N,N'-bis[3-(methylamino)propyl]-1,7-diaminoheptane]
response vs control in vivo at 10 mg/kg (L1210 leukemia [1]; days 1-5): 110%

CCNCCCNCCCCCCCNCCCNCC [Compound 28314, N,N'-Bis[3-(ethylamino)propyl]-1,7-heptanediamine]
Cured (mice surviving beyond day 45) (L1210 leukemia [3]; [6]): 5/5
Survival in days (Mean ± S.E.) (L1210 leukemia [3]; [6]): > 45 days
Cured (mice surviving beyond day 45) (L1210 leukemia [3]; [7]): 0/5
Survival in days (Mean ± S.E.) (L1210 leukemia [3]; [7]): 16.0 ± 4.0 days
Cured (mice surviving beyond day 45) (L1210 leukemia [3]; [8]): 5/5
Survival in days (Mean ± S.E.) (L1210 leukemia [3]; [8]): > 45 days
Curative effect against L1210 leukemia in vivo (L1210 leukemia [3]; at 20 and 40 mg/Kg/day): effective in providing a curative effect
response vs control in vivo at 10 mg/kg (L1210 leukemia [1]; days 1-5): 200%
Liver Metastasis % Inhibition ([4]; days 1-5, 5 mg/Kg): 87%
Liver Metastasis No. foci ± S.E. ([4]; days 1-5, 5 mg/Kg): 29.2 ± 7.7 foci
Liver Metastasis % Inhibition ([4]; days 3-8, 5 mg/Kg): 72%
Liver Metastasis No. foci ± S.E. ([4]; days 3-8, 5 mg/Kg): 62.3 ± 17.5 foci
Lung Metastasis % Inhibition ([5]; days 1-5, 10 mg/Kg, i.p., day 18): 100%
Lung Metastasis No. foci ± S.E. ([5]; days 1-5, 10 mg/Kg, i.p., day 18, n = 6, control 21.3 ± 11.5): 0 foci
antimetastatic effect in inhibiting lung metastasis ([5]; results as presented in Table 4): antimetastatic effect

CC(N)CCNCCCCCCCNCCC(C)N (centres unmarked) [Compound 28516, N,N'-bis[3-(amino)butyl]-1,7-diaminoheptane, reference compound]
response vs control in vivo at 10 mg/kg (L1210 leukemia [1]; days 1-5): 200%

CNCC(C)CNCCCCCCCNCC(C)CNC (centres unmarked) [Compound 28600, N,N'-bis[3-(methylamino)-2-(methyl)propyl]-1,7-diaminoheptane]
response vs control in vivo at 10 mg/kg (L1210 leukemia [1]; days 1-5): 132%

CNC(C)CCNCCCCCCCNCCC(C)NC (centres unmarked) [Compound 101060, N,N'-Bis[3-(methylamino)butyl]-1,7-diaminoheptane tetrahydrochloride]
response vs control in vivo at 10 mg/kg (L1210 leukemia [1]; days 1-5): 180%

Source: patent US5109024A, “Polyamine derivatives as antineoplastic agents” (Merrell Dow Pharmaceuticals Inc., priority 1991, dated 1992)
